Data published in patent publication US11077050B2, “Formulation for parenteral administration” (MERCK SHARP & DOHME CORP., priority 2017, dated 2021).

Experiment: pKa of doravirine
Type: physicochemical

## Cn1c(Cn2ccc(C(F)(F)F)c(Oc3cc(Cl)cc(C#N)c3)c2=O)n[nH]c1=O [Doravirine]
  pKa: 9.47
